Data: patent US12016829B2, “Pharmaceutical composition and method for treating seizure disorders” (Pike Therapeutics Inc, priority 2019, dated 2024)
Read-outs that look alike come from different tables or passages of the source.

Tests used:
[1] = Oral bioavailability, AUC and plasma concentration of CBD; assay type: in vivo, patient
Source text: When a medication is orally administered, its bioavailability generally decreases due to incomplete absorption and first-pass metabolism and may vary from patient to patient. The compositions of the disclosure overcome these problems because in transdermal delivery, active agent is delivered directly into systemic circulation through the skin, and it escapes the first pass hepatic metabolism therefore to achieve the desired therapeutic activity less drug is required, resulting into less adverse effects or side effects.
So, the actual dose delivering to patient upon oral delivery is described in Table 3
So, 50 sqcm patch with 7.5 ug/sqcm/hr flux will deliver 9 mg of drug in one day. And 100 sqcm of patch will deliver 18 mg of drug with same flux profile.

[2] = significant number of patients, cited from earlier work
[3] = cited from earlier work

| SMILES | bioavailability ([1]; human, in vivo, oral, read-out: average bioavailability taken for calculation) [%] | Avg. Oral Plasma Concentration ([1]; oral dose 5 mg/kg/day) [ng/mL] | Avg. Oral Plasma Concentration ([1]; oral dose 10 mg/kg/day) [ng/mL] | reduction of total convulsive frequency ([2]; TRE (Dravet syndrome, myoclonic absence seizures, FIRES)) | seizure status at the end of three months treatment [2] | Oral AUC ([3]; oral dose 5 mg/kg/day) [ng·h/mL] | Oral AUC ([3]; oral dose 10 mg/kg/day) [ng·h/mL] | share of the administered dose that reaches systemic circulation ([3]; oral administration, hepatic first pass metabolism) |
| --- | --- | --- | --- | --- | --- | --- | --- | --- |
| C=C(C)[C@@H]1CCC(C)=C[C@H]1c1c(O)cc(CCCCC)cc1O [CBD, 2-[(1R,6R)-6-isopropenyl-3-methylcyclohex-2-en-1-yl]-5-pentylbenzene-1,3-diol] | 15 | 10.0 | 30.0 | greater than 50% | seizure free | 241 | 722 |  |
| CCCCCc1cc(O)c2c(c1)OC(C)(C)c1ccc(C)cc1-2 [Cannabinol] |  |  |  |  |  |  |  | 10%-20% |
